Experiments:
MgtA [1] = target: T1, MgtA (Escherichia coli, UniProt P0ABB8); assay: cryo-EM map density ([…] Å), ligand not modelled; conditions: 5 mM ADP, 5 mM MgCl2, pH 7.5, GDN, dimer, nucleotide binding site
T1 construct: full length, 898 aa, 100 kDa; pETDuet-1-MgtAS (co-expressed with MgtS, no MgtS density seen), E. coli C43(DE3); Ni-NTA and SEC in GDN; predominantly homodimer for cryo-EM, predominantly monomer in DDM for HDX-MS
T1 sequence (P0ABB8 1-898): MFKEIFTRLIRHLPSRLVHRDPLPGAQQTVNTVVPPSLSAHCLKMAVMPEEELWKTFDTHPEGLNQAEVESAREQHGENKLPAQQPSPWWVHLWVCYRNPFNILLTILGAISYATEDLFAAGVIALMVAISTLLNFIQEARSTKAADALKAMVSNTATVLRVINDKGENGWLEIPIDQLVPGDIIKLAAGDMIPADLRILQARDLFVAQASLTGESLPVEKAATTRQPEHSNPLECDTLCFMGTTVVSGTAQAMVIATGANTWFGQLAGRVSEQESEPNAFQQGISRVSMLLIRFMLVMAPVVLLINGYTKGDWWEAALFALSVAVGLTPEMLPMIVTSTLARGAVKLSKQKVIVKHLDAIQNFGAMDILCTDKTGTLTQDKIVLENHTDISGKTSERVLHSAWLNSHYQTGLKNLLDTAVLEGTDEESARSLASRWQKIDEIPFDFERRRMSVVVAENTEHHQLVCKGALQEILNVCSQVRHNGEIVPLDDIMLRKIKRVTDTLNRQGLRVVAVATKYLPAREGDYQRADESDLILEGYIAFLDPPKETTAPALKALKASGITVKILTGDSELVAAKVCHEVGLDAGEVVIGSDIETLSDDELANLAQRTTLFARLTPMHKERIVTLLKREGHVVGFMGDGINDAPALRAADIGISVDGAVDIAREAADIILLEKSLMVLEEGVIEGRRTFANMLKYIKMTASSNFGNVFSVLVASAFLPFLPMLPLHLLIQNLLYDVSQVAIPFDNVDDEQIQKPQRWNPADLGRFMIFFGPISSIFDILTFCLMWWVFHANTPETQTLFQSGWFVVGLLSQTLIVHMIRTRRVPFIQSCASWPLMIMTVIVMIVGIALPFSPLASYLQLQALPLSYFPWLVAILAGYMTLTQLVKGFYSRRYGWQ

MgtA [2] = target: T1, MgtA; assay: cryo-EM structure ([…] Å); HDX-MS; conditions: cryo-EM: 5 mM ATP, 5 mM MgCl2, pH 7.5, GDN, dimer, nucleotide binding site; HDX-MS: 5 mM ATP, 5 mM MgSO4, DDM, mainly monomer
MgtA [3] = target: T1, MgtA; assay: cryo-EM structure ([…] Å); HDX-MS; conditions: cryo-EM: 5 mM ATPγS, 5 mM MgCl2, pH 7.5, GDN, dimer, nucleotide binding site; HDX-MS: 5 mM ATPγS, 5 mM MgSO4, DDM, mainly monomer
[4] = target: the molecule itself; assay: cryo-EM structure; single-particle cryo-EM of GDN-purified MgtA, 5 mM MgCl2, 0.007% GDN; without nucleotide or with 5 mM ATP, ATPγS or ADP

For `Nc1ncnc2c1ncn2[C@@H]1O[C@H](COP(=O)(O)OP(=O)(O)O)[C@@H](O)[C@H]1O` [ADP], the “cryo-EM map density (3.75 Å), ligand not modelled” value (MgtA [1]) was “some ADP can enter the nucleotide binding pocket but cannot be bound as tightly”.

`Nc1ncnc2c1ncn2[C@@H]1O[C@H](COP(=O)(O)OP(=O)(O)OP(=O)(O)O)[C@@H](O)[C@H]1O` [ATP] was tested, and the “cryo-EM structure (3.72 Å); HDX-MS” value (MgtA [2]) was “Cryo-EM structures of the MgtA dimer bound to the ligands ATP, ATPgS, and ADP”.

With `Nc1ncnc2c1ncn2[C@@H]1O[C@H](COP(=O)(O)OP(=O)(O)OP(O)(O)=S)[C@@H](O)[C@H]1O` [ATPγS] the “cryo-EM structure (3.87 Å); HDX-MS” value (MgtA [3]) was “MgtA with ATPγS, though resolved at slightly lower resolution, was structurally similar to MgtA with ATP”.

B1: Escherichia coli magnesium transporter MgtA (from pETDuet-1-MgtAS, co-overexpressed with MgtS) (natural protein)
chain: MFKEIFTRLIRHLPSRLVHRDPLPGAQQTVNTVVPPSLSAHCLKMAVMPEEELWKTFDTHPEGLNQAEVESAREQHGENKLPAQQPSPWWVHLWVCYRNPFNILLTILGAISYATEDLFAAGVIALMVAISTLLNFIQEARSTKAADALKAMVSNTATVLRVINDKGENGWLEIPIDQLVPGDIIKLAAGDMIPADLRILQARDLFVAQASLTGESLPVEKAATTRQPEHSNPLECDTLCFMGTTVVSGTAQAMVIATGANTWFGQLAGRVSEQESEPNAFQQGISRVSMLLIRFMLVMAPVVLLINGYTKGDWWEAALFALSVAVGLTPEMLPMIVTSTLARGAVKLSKQKVIVKHLDAIQNFGAMDILCTDKTGTLTQDKIVLENHTDISGKTSERVLHSAWLNSHYQTGLKNLLDTAVLEGTDEESARSLASRWQKIDEIPFDFERRRMSVVVAENTEHHQLVCKGALQEILNVCSQVRHNGEIVPLDDIMLRKIKRVTDTLNRQGLRVVAVATKYLPAREGDYQRADESDLILEGYIAFLDPPKETTAPALKALKASGITVKILTGDSELVAAKVCHEVGLDAGEVVIGSDIETLSDDELANLAQRTTLFARLTPMHKERIVTLLKREGHVVGFMGDGINDAPALRAADIGISVDGAVDIAREAADIILLEKSLMVLEEGVIEGRRTFANMLKYIKMTASSNFGNVFSVLVASAFLPFLPMLPLHLLIQNLLYDVSQVAIPFDNVDDEQIQKPQRWNPADLGRFMIFFGPISSIFDILTFCLMWWVFHANTPETQTLFQSGWFVVGLLSQTLIVHMIRTRRVPFIQSCASWPLMIMTVIVMIVGIALPFSPLASYLQLQALPLSYFPWLVAILAGYMTLTQLVKGFYSRRYGWQ
notes: MgtA, E. coli, P-type ATPase Mg2+ transporter, 100 kDa, 898 amino acids; residues from the N-terminal tail (1-36) on are modelled in the dimer structure; That the His tag stands on MgtA is inferred from its elution from Ni-NTA; also called EcMgtA; MgtAS (the purified sample); source: E. coli C43 (DE3), pETDuet-1-MgtAS, co-overexpressed with MgtS; membranes solubilised with 1% GDN (or DDM, LMNG); …
B1 was tested, and the “stoichiometry N” value [4] was 2.

From publication doi:10.1101/2024.02.28.582502, “Magnesium Transporter MgtA revealed as a Dimeric P-type ATPase” (bioRxiv, 2024)
